Tests used:
[1] = target: FLNA pentapeptide of SEQ ID NO: 1 (Bn-VAKGL) (Homo sapiens, UniProt P21333); test: FITC-NLX-based FLNA screening assay (inhibition of FITC-naloxone binding to Bn-VAKGL on streptavidin plates); conditions: for Percent inhibition of FITC-NLX binding (preliminary study): 100 nM frozen-stored FITC-NLX, average of two runs
mu opiate receptor (MOR) = test: MOR agonist activity using [35S]GTPγS binding assay in striatal membranes; format: biochemical; conditions: for % DAMGO (0.1 μM) / % DAMGO (1 μM): relative to DAMGO; for % DAMGO + BFNA: 1 μM compound + β-FNA, relative to DAMGO + BFNA
Experimental: To assess the mu opiate receptor (MOR) agonist activity of positive compounds from the FLNA screening, compounds were tested in a [^35S]GTPγS binding assay using striatal membranes. […] This assay measures a functional consequence of receptor occupancy at one of the earliest receptor-mediated events. The assay permits traditional pharmacological parameters of potency, efficacy and antagonist affinity, with the advantage that agonist measures are not subjected to amplification or other modulation that may occur when analyzing parameters further downstream of the receptor.
Thus, striatal tissue was homogenized in 10 volumes of ice cold 25 mM HEPES buffer, pH 7.4, which contained 1 mM EGTA, 100 mM sucrose, 50 μg/ml leupeptin, 0.04 mM PMSF, 2 μg/ml soybean trypsin inhibitor and 0.2% 2-mercaptoethanol. The homogenates were centrifuged at 800×g for 5 minutes and the supernatants were centrifuged at 49,000×g for 20 minutes. The resulting pellets were suspended in 10 volume of reaction buffer, which contained 25 mM HEPES, pH 7.5, 100 mM NaCl, 50 μg/ml leupeptin, 2 μg/ml soybean trypsin inhibitor, 0.04 mM PMSF and 0.02% […].
The resultant striatal membrane preparation (200 μg) was admixed and maintained (incubated) at 30° C. for 5 minutes in reaction buffer as above that additionally contained 1 mM MgCl2 and 0.5 nM [^35S]GTPγS (0.1 μCi/assay, PerkinElmer Life and Analytical Sciences) in a total volume of 250 μl and continued for 5 minutes in the absence or presence of 0.1-10 μM of an assayed compound of interest. The reaction was terminated by dilution with 750 μl of ice-cold reaction buffer that contained 20 mM MgCl2 and 1 mM EGTA and immediate centrifugation at 16,000×g for 5 minutes.
The resulting pellet was solubilized by sonicating for 10 seconds in 0.5 ml of immunoprecipitation buffer containing 0.5% digitonin, 0.2% sodium cholate and 0.5% NP-40. Normal rabbit serum (1 μl) was added to 1 ml of lysate and incubated at 25° C. for 30 minutes. Nonspecific immune complexes were removed by incubation with 25 μl of protein A/G-conjugated agarose beads at 25° C. for 30 minutes followed by centrifugation at 5,000×g at 4° C. for 5 minutes. The supernatant was divided and separately incubated at 25° C. for 30 minutes with antibodies raised against Gαo proteins (1:1,000 dilutions).
The immunocomplexes so formed were collected by incubation at 25° C. for 30 minutes with 40 μl of agarose-conjugated protein A/G beads and centrifugation at 5,000×g at 4° C. for 5 minutes. The pellet was washed and suspended in buffer containing 50 mM Tris-HCl, pH 8.0, and 1% NP-40. The radioactivity in the suspension was determined by liquid scintillation spectrometry.

[2] = Series C-2, 0.1 μM compound, [35S]GTPγS binding to Gαo, striatal membranes
[3] = Series C-2, 1 μM compound + 1 μM β-FNA
[4] = Series C-2, 1 μM compound, [35S]GTPγS binding to Gαo, striatal membranes
[5] = Series C-1, 0.1 μM compound, [35S]GTPγS binding to Gαo, striatal membranes
[6] = Series C-1, 1 μM compound + 1 μM β-FNA
[7] = Series C-1, 1 μM compound, [35S]GTPγS binding to Gαo, striatal membranes

| SMILES | % DAMGO (0.1 μM) (mu opiate receptor (MOR); Series C-2, 0.1 μM compound) [%] | MOR agonist activity, percent [35S]GTPγS binding at the stated compound concentration (mu opiate receptor (MOR); [2]) [%] | MOR agonist activity, percent [35S]GTPγS binding at the stated compound concentration (mu opiate receptor (MOR); [3]) [%] | % DAMGO + BFNA (mu opiate receptor (MOR); Series C-2) [%] | % DAMGO (1 μM) (mu opiate receptor (MOR); Series C-2, 1 μM compound) [%] | MOR agonist activity, percent [35S]GTPγS binding at the stated compound concentration (mu opiate receptor (MOR); [4]) [%] | % DAMGO (0.1 μM) (mu opiate receptor (MOR); Series C-1, 0.1 μM compound) [%] | % DAMGO + BFNA (mu opiate receptor (MOR); Series C-1) [%] | % DAMGO (1 μM) (mu opiate receptor (MOR); Series C-1, 1 μM compound) [%] | further results |
| --- | --- | --- | --- | --- | --- | --- | --- | --- | --- | --- |
| C=CCN1CC[C@]23c4c5ccc(O)c4O[C@H]2C(=O)CC[C@]3(O)[C@H]1C5 [(+) NLX] | – | – | – | – | – | – | – | – | – | Percent inhibition of FITC-NLX binding (preliminary study) ([1]; compound 0.1 nM): 22.7%; Percent inhibition of FITC-NLX binding (preliminary study) ([1]; compound 1 nM): 22.8%; Percent inhibition of FITC-NLX binding (preliminary study) ([1]; compound 10 nM): 23.1%; Percent inhibition of FITC-NLX binding (preliminary study) ([1]; compound 100 nM): 22.8%; Percent inhibition of FITC-NLX binding (preliminary study) ([1]; compound 1 µM): 39.8% |
| COc1ccc(S(=O)(=O)N2CCC3(NCCO3)C3CCCCC32)cc1 (centres unmarked) [Compound C0144M-2] | 108.3 | 186.3 | 125.9 | 137.9 | 90.8 | 295.9 | – | – | – | – |
| NS(=O)(=O)c1ccc(S(=O)(=O)N2CCC3(CC2)NCCO3)cc1 [Compound C0034-3] | – | – | – | – | – | – | – | – | – | inhibition at 0.01 µM ([1]; FLNA-binding compound 0.01 μM, 10 nM FITC-NLX, read-out: Percent Binding Inhibition): 29.6%; inhibition at 0.1 µM ([1]; FLNA-binding compound 0.1 μM, 10 nM FITC-NLX, read-out: Percent Binding Inhibition): 38.3%; inhibition at 1 µM ([1]; FLNA-binding compound 1 μM, 10 nM FITC-NLX, read-out: Percent Binding Inhibition): 44.8% |
| CC(=O)c1ccc(S(=O)(=O)N2CCC3(CC2)NCC(=O)N3Cc2ccccc2)cc1 [Compound C0082M] | – | – | – | – | – | – | 113.7 | 181.1 | 107.8 | Concentration of FLNA-Binding Compound as Agonist 0.1 μM (mu opiate receptor (MOR); [5]): 228.1%; Concentration of FLNA-Binding Compound as Agonist 1 μM + BFNA (mu opiate receptor (MOR); [6]): 97.6%; Concentration of FLNA-Binding Compound as Agonist 1 μM (mu opiate receptor (MOR); [7]): 338.4% |
| O=S(=O)(c1ccccc1Oc1ccccc1)N1CCC2(CC1)NCCO2 [Compound C0149M-2] | 122.0 | 209.8 | 93.4 | 102.3 | 124.8 | 406.7 | – | – | – | – |
| COc1ccc(NC(=O)N2CCC3(CC2)NCCO3)cc1 [Compound C0151M-2] | 201.6 | 346.8 | 212.8 | 233.1 | 122.0 | 397.6 | – | – | – | – |
| COc1ccc(CCCCC2c3c(cc4c(c3OC)OCO4)CC[N+]2(C)C)cc1 (centres unmarked) [Compound B0056] | – | – | – | – | – | – | – | – | – | % DAMGO (0.1 μM) (mu opiate receptor (MOR); Series B, 0.1 μM compound): 98.9%; MOR agonist activity, percent [35S]GTPγS binding at the stated compound concentration (mu opiate receptor (MOR); Series B, 0.1 μM compound, [35S]GTPγS binding to Gαo, striatal membranes): 174.7%; MOR agonist activity, percent [35S]GTPγS binding at the stated compound concentration (mu opiate receptor (MOR); Series B, 1 μM compound + 1 μM β-FNA): 41.8%; % DAMGO + BFNA (mu opiate receptor (MOR); Series B): 158.9%; % DAMGO (1 μM) (mu opiate receptor (MOR); Series B, 1 μM compound): 113.6%; MOR agonist activity, percent [35S]GTPγS binding at the stated compound concentration (mu opiate receptor (MOR); Series B, 1 μM compound, [35S]GTPγS binding to Gαo, striatal membranes): 288.8% |
| O=C1CN(Cc2ccccc2)C2(CCN(C3CCCCC3)CC2)N1 [C0137M(P7)] | 95.6 | 180.8 | 55.8 | 115.1 | 78.1 | 193.8 | – | – | – | – |
| O=C(c1ccc([N+](=O)[O-])cc1)N1CCC2(CC1)OCCN2S(=O)(=O)c1ccc([N+](=O)[O-])cc1 [Compound C0033] | – | – | – | – | – | – | 85.9 | 235.0 | 80.6 | Concentration of FLNA-Binding Compound as Agonist 0.1 μM (mu opiate receptor (MOR); [5]): 134.5%; Concentration of FLNA-Binding Compound as Agonist 1 μM + BFNA (mu opiate receptor (MOR); [6]): 76.6%; Concentration of FLNA-Binding Compound as Agonist 1 μM (mu opiate receptor (MOR); [7]): 186.4% |
| CC(=O)c1ccc(S(=O)(=O)N2CCC3(CC2)NC(=O)CN3Cc2ccccc2)cc1 [Compound C0085M] | – | – | – | – | – | – | 105.5 | 112.6 | 78.4 | – |

Reference: patent US10363239B2, “Method for inhibiting growth of cancer cells” (Pain Therapeutics, Inc., priority 2013, dated 2019)
